Experimental data reported in patent US20140336159A1, “METHODS FOR TREATING AND DIAGNOSING RESPIRATORY TRACT INFECTIONS” (PULMATRIX, INC., priority 2011, published 2014).

Key:
[1] = system: LPS stimulated peritoneal macrophages (TRPV channels); test: Cytokine secretion by LPS stimulated macrophages treated with TRPV channel antagonists; assay type: cell-based, mouse
From the text: The transient receptor potential V (TRPV) family of ion channels is sensitive to osmotic changes and has an intimate relationship with levels of intracellular calcium. […] In order to determine the influence of TRPV channels Ruthenium red, a potent, broad acting TRPV channel antagonist was used. […] The results can be seen in FIG. 20A. […] Following two hours, supernatants were collected for LUMINEX analysis of inflammatory cytokines. […] However, while treatment with SKF96365 did have an effect on LPS stimulated macrophages, it was not as pronounced as that of treatment with ruthenium red.

neutrophils in the BAL = test: Ozone exposure mouse model; assay type: in vivo, mouse (BALB/cJ); conditions: 100 microgram/kg intranasal
Protocol: Female wild-type (BALB/cJ) were obtained from The Jackson Laboratory (Bar Harbor. ME) at six weeks of age. Mice were treated with dry powder formulations Leucine (98% leucine, 2% sodium chloride) and Formulation II (75% calcium lactate, 20% leucine, 5% sodium chloride) in a temperature and humidity controlled room (30±5% RH and 20±2° C.) or administered liquid treatments of a p38 MAP kinase inhibitor (100 microgram/kg, Tocris SB203580), and USP-Grade Saline (0.9% NaCl), Cardinal Health via the intranasal route. Naïve mice were not exposed to dry powder treatment. One hour following the end of treatment, conscious mice were placed in a custom plastic exposure chamber (26 cm×16 cm×12 cm, Braintree Scientific) on a heated pad at 37° C. Ozone was generated via corona discharge using OZ-2AD Ozone Generator (Ozone Solutions, Hull, Iowa) and diluted with 2.0 LPM (liter per minute) of USP breathing air (MedTech, Medford, Mass.) to a concentration of 3 ppm. The concentration inside the exposure chamber was sampled continuously at 1.0 LPM using UV-106L Ozone Analyzer (Ozone Solutions, Hull, Iowa). Mice were exposed to ozone for 1 hour. Control mice were placed in static cages and exposed to ambient air for a duration matched to each ozone exposure. Mice were euthanized 4 hours following the end of the ozone or air exposure using a fatal dose of pentobarbital. BAL and cell counts were performed. […]

[2] = system: LPS stimulated peritoneal macrophages
Protocol: Following 2 hours of incubation, cells were lysed, RNA was isolated, and a cDNA reaction was performed. RNA was harvested using the QIAGEN (Germantown, Md.) RNeasy® Plus Mini kit according to the manufacturer's Animal Cell Protocol (2005). RNA concentration and purity was determined by spectrophotometry using NANODROP 1000 spectrophotometer (Thermo Fisher Scientific, Wilmington, Del.). The expression of KC, IL-6, and TNF alpha were assessed by quantitative PCR. RNA expression levels of selected genes were quantified using the delta/delta C(t) (ΔΔCt) method using the expression of 18S as an internal reference for each sample. RNA was quantified by a two-step procedure in which RNA was converted to cDNA by reverse transcription using the iSCRIPT cDNA Synthesis kit from Bio-Rad followed by quantitative PCR (qPCR) using iQ SYBR Green Supermix from Bio-Rad.
The following cDNA synthesis reaction conditions were used: […]
The following quantitative PCR reaction conditions were used: […]
Data were collected and analyzed using the (delta/delta) ΔΔCt method. […] The fold change was then determined by the equation: 2^−ΔΔCt. […]

TLR2/6 = TLR2/6 (Mus musculus, UniProt Q9EPW9+Q9QUN7); conditions: TLR 2/6 ligand; negative values indicate increased KC
Protocol: (§1) It was hypothesized that calcium likely alters the immune response to LPS and possibly other TLR receptors in alveolar macrophages. To test this hypothesis, primary macrophages were isolated from mice. Briefly, C57BL/6 female mice were anesthetized using isofluorane inhalant. Animals were injected i.p. with 1.5 ml thioglycollate. Three to four days post injection mice were euthanized using CO2 to harvest peritoneal macrophages. Under sterile conditions, the abdominal wall was exposed and the peritoneal cavity was injected with 7 ml of lavage media, which was immediately recovered back into the syringe and deposited into a 50 mL conical tube. The peritoneal cavity was opened and the residual lavage media was recovered. Cell suspensions were centrifuged at 1200 rpm (RT-6000) for 8-10 minutes. The supernatant was removed and cell pellets were resuspended in 1-2 ml lysis buffer, incubated at room temperature (RT) for 1-2 minutes, and resuspended in18-19 ml cell culture media (DMEM/F-12). Cells were again centrifuged, supernatants were removed, the cell pellets were pooled, washed once more in cell culture media, centrifuged, and resuspended in 10 ml cell culture media, and cells were counted using a hemocytometer. To confirm macrophage phenotype, a cytospin preparation was performed. Cells were cultured in DMEM:F12 overnight. Cells were then stimulated with agonists to TLR4 (LPS or LipidA), TLR1/2 (pam3CSK4), TLR2/6 (FLS-1), TLR2 (LT-SA), TLR3 (Poly I:C), TLR 5 (Flagellin), TLR7 (Gardiquimod or Loxoribine) and TLR9 (CPG-ODN) ligands with 0, 10 or 25 mM calcium chloride supplemented to the media.

TLR3 = TLR3 (Mus musculus, UniProt Q99MB1); conditions: TLR 3 ligand; negative values indicate increased KC
TLR3, sequence (Q99MB1 26-905): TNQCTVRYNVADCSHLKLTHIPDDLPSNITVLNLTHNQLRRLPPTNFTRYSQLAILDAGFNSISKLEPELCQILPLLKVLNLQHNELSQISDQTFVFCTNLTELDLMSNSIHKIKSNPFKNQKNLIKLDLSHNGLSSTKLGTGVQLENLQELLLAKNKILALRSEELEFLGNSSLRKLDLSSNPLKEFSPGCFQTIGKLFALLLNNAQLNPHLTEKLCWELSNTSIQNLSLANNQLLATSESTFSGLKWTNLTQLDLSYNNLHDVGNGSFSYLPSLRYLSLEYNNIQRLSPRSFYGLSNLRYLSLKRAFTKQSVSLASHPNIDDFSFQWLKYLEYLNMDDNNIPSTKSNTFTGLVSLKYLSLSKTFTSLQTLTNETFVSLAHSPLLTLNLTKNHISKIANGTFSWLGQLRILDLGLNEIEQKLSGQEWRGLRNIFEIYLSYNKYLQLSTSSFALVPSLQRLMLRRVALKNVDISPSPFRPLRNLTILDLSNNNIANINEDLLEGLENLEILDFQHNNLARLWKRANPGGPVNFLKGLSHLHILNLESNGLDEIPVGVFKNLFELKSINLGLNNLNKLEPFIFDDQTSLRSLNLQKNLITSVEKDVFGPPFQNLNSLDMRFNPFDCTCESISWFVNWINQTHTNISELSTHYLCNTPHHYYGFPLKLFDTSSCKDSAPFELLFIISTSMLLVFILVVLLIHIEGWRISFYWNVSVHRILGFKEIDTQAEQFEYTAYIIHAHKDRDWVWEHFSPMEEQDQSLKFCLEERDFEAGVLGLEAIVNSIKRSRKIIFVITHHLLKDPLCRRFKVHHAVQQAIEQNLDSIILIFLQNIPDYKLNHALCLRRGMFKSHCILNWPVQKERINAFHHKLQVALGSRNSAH
Protocol: as §1

TLR9 = TLR9 (Mus musculus, UniProt Q9EQU3); conditions: TLR 9 ligand; negative values indicate increased KC
TLR9, sequence (Q9EQU3 26-1032): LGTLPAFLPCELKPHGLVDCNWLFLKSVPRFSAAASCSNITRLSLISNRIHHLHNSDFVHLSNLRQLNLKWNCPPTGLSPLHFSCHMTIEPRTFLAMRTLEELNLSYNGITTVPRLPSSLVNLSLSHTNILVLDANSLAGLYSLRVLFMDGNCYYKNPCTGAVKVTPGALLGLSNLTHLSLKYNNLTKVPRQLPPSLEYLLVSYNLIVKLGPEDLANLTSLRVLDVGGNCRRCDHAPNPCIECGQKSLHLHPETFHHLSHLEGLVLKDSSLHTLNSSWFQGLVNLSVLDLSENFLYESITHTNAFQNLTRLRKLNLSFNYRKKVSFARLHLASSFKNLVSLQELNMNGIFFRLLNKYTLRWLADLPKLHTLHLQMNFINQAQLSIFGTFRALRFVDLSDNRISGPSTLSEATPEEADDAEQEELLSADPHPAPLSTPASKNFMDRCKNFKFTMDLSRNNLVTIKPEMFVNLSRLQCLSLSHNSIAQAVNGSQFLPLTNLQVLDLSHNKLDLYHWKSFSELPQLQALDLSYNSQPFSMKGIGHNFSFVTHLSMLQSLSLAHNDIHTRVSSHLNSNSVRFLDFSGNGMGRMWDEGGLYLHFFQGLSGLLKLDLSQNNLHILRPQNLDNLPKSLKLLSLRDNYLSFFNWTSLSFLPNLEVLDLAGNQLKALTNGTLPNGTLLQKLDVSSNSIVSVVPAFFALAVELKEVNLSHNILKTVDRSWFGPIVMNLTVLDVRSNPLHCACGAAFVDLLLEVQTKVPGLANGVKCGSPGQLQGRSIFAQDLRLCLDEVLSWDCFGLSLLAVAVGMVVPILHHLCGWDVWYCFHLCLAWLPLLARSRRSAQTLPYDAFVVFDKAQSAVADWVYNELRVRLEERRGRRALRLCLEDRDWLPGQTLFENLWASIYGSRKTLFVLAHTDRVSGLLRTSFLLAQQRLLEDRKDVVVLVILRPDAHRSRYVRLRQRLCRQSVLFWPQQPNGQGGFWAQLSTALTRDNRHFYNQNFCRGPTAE
Protocol: as §1

TLR2 = TLR2 (Mus musculus, UniProt Q9QUN7); conditions: TLR 2 ligand; negative values indicate increased KC
Protocol: as §1

TLR1/2 = TLR1/2 (Mus musculus, UniProt Q9EPQ1+Q9QUN7); conditions: TLR 1/2 ligand; negative values indicate increased KC
Protocol: as §1

TLR4 = TLR4 (Mus musculus, UniProt Q9QUK6); conditions: TLR 4 ligand; negative values indicate increased KC
TLR4, sequence (Q9QUK6 26-835): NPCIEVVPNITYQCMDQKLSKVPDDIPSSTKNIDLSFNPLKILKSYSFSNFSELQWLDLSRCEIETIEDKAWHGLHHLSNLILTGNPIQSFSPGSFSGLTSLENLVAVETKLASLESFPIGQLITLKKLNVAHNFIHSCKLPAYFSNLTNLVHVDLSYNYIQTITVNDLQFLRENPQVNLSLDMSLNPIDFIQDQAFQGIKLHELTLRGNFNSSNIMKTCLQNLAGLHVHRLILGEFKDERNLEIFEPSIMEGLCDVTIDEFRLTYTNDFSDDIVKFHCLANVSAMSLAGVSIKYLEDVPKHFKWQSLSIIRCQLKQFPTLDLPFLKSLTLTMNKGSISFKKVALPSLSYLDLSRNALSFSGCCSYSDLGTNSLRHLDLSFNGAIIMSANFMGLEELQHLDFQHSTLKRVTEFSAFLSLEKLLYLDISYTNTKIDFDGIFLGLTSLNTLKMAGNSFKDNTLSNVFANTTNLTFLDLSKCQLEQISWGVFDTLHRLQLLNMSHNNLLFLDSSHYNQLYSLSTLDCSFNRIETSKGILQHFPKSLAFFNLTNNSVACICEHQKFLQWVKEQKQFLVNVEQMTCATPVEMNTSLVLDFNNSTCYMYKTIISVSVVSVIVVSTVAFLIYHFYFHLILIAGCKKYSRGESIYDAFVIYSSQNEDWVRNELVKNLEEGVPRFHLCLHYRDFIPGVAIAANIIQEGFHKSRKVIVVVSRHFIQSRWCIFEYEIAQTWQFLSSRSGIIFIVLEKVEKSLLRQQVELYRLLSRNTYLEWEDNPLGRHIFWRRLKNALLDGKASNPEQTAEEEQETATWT
TLR4, sequence (Q9JHF9 19-160 partner): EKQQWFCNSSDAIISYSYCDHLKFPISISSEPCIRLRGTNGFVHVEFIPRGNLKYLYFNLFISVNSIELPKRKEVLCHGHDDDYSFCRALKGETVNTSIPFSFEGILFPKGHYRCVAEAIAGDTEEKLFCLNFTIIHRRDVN
Protocol: as §1

TLR 5 = TLR 5 (Mus musculus, UniProt Q9JLF7); conditions: TLR 5 ligand; negative values indicate increased KC
TLR 5, sequence (Q9JLF7 27-859): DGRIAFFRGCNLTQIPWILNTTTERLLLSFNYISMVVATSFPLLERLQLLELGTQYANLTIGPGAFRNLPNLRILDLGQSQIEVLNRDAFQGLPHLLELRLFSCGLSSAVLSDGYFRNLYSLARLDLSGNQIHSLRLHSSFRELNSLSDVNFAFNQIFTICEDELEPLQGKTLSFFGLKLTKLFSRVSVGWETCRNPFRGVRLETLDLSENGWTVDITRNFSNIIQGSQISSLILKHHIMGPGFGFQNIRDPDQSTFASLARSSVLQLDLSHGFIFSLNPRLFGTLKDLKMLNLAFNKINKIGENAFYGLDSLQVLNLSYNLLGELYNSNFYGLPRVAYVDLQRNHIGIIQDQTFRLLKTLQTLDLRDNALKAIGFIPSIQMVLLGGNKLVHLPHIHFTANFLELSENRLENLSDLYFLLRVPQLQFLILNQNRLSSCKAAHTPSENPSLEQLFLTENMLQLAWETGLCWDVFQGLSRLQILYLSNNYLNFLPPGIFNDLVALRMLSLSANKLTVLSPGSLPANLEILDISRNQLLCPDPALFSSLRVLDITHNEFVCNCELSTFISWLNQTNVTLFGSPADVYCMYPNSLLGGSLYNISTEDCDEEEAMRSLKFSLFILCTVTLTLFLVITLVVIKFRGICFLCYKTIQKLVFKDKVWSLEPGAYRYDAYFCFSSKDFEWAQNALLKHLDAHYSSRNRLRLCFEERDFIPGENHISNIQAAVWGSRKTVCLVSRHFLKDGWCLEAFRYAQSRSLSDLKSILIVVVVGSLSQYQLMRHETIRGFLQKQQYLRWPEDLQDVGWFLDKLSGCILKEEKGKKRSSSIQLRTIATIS
Protocol: as §1

TLR7 = TLR7 (Mus musculus, UniProt P58681); conditions: TLR 7 ligand; negative values indicate increased KC
TLR7, sequence (P58681 27-1050): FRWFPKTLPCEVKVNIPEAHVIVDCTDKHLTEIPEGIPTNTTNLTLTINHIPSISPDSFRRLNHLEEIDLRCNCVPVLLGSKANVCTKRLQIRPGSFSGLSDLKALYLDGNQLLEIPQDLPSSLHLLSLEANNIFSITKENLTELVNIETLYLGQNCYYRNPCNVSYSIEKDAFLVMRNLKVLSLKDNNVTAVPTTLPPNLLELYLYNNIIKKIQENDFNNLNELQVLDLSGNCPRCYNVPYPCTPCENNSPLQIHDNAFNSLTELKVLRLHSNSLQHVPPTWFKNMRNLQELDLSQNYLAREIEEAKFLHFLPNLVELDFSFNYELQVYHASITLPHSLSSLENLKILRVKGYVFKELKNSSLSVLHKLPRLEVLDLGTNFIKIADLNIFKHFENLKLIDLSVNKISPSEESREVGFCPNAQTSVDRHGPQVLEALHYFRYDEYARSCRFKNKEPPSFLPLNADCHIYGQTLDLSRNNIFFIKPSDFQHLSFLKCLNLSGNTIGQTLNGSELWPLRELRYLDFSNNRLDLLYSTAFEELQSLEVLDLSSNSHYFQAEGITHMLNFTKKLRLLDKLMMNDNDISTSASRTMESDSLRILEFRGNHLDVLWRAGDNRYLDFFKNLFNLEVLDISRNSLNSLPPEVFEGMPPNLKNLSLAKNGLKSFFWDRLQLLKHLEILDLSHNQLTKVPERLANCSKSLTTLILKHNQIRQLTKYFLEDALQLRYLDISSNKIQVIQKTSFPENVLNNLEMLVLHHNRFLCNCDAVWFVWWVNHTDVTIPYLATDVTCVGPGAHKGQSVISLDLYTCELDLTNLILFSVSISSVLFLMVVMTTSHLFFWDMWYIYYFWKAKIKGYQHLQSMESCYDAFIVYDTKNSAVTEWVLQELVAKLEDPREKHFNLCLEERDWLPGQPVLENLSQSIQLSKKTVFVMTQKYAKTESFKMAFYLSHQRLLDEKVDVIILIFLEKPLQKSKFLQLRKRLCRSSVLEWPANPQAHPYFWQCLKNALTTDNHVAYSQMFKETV
Protocol: as §1

[3] = system: macrophages stimulated with S. pneumoniae; conditions: S. pneumoniae challenge, 0, 5, 10, 25 mM, 2 hours
Protocol: (§3) To assess the level of bacterial induced inflammation in isolated peritoneal murine macrophages, isolated cells were placed in cell culture media and allowed to adhere to 96 well plates overnight. […] Following two hours of incubation, supernatants were collected for LUMINEX analysis of KC and TNF alpha with the results shown in FIG. 19.

[4] = system: LPS stimulated peritoneal macrophages; test: Cytokine secretion by LPS stimulated peritoneal macrophages; assay type: cell-based, mouse (C57BL/6); conditions: for LPS induced inflammatory mediator secretion (KC, IL-6): mouse macrophages, 10 ng/ml LPS, 2 hours, salts 0-50 mM
From the text: Macrophages represent a key component of the innate immune system. Alveolar macrophages are thought to play a central role in disease pathogenesis by secreting pro-inflammatory cytokines and chemokines in the context of both chronic obstructive pulmonary disease (COPD) and cystic fibrosis (CF), two respiratory illnesses involving airway inflammation. It was hypothesized that given the prominent role of alveolar macrophages in LPS induced lung inflammation, it may be possible that Ca^2+-ion containing formulations directly influence the inflammatory response of the macrophage after LPS exposure. In order to test this hypothesis in-vitro, murine peritoneal macrophages were isolated. C57BL/6 female mice were anesthetized using isofluorane inhalant. […] To confirm macrophage phenotype, a cytospin preparation was performed. Cells were cultured in DMEM:F12 overnight. The following day the media was removed and the macrophages were exposed to media supplemented with varying concentrations of LPS (1 ng/ml to 1 microgram/ml), a dose range of supplemental calcium chloride (5 mM to 50 mM) as well as a dose range of calcium chloride in the presence of LPS for 2 hours. After 2 hours in culture the media was collected for analysis of inflammatory cytokines using LUMINEX® Multiplex immunoassays (Invitrogen/Life Technologies, Grand Island, N.Y.) and BIO-PLEX MANAGER™ software (Version 6) (Bio-Rad, Hercules, Calif.). Presto blue or trypan blue assays were used to determine cell viability. […] The media content for 3 representative inflammatory mediators (IL-6, KC and TNF-alpha) cultured under LPS free conditions (unstimulated) as well as cells exposed to 1 ng/ml LPS were analyzed.
(§2) To determine the effects of alternating the cation in the calcium chloride salt, LPS stimulated human or mouse macrophages were exposed to alternative divalent and monovalent cations, magnesium chloride and sodium chloride, as well as an alternative […] anion, calcium lactate. Normal human monocytes were differentiated into macrophage derived monocytes in culture for 7 days as described in Example 16, and perotineal derived mouse macrophages were described in Example 15. Following two hours of incubation with LPS (10 ng/ml) and the appropriate salt concentration, supernatants were collected for LUMINEX protein analysis of inflammatory cytokines.

[5] = system: macrophages stimulated with K. pneumoniae; conditions: 1×10^7 CFU/ml K. pneumoniae, 0, 5, 10, 25 mM, 2 hours
Protocol: as §3

human macrophages = test: Cytokine secretion by LPS stimulated human monocyte-derived macrophages (normal and COPD-derived); assay type: cell-based; conditions: 10 ng/ml LPS, 2 hours; for LPS induced cytokine production (IL-8, IL-6): human macrophages, salts 0-50 mM
Protocol: Normal and COPD-derived human monocytes were differentiated into macrophage derived monocytes in culture for 7 days. Cells were thawed following storage in liquid nitrogen, and then plated at 2.0-2.5×10^5 cells/well (in 0.2 ml per well) in IMDM cell culture media containing 10% human serum and human GM-CSF (50 ng/ml). On day 7, assays were performed on the cells, using media containing serum but no GM-CSF. Cells were stimulated with 10 ng/ml LPS, and exposed to calcium chloride concentrations of either 10 or 25 mM. Following two hours, supernatants were collected for LUMINEX analysis of IL-8, IL-6, TNF alpha and MIP-1 alpha (FIG. 17A), IL-8 only for COPD (FIG. 17B). […] Calcium chloride reduced LPS induced inflammation in normal and COPD-derived human monocyte-derived macrophages.
as §2

Influenza A/WSN/33/1 = assay type: cell-based

## COc1ccc(CCCOC(Cn2ccnc2)c2ccc(OC)cc2)cc1 (stereo not shown) [SKF 96365]
[1]; 5, 20, 50 micromolar, 10 ng/ml LPS, 2 hours
  KC and IL-6 concentrations: dose dependent decrease
[1]; 20 and 50 micromolar, 10 ng/ml LPS
  TNF alpha concentration: reduced at the highest two doses
[1]; 50 micromolar, 10 ng/ml LPS
  decrease in KC concentration: 51%
[1]; along with 10 mM calcium chloride, compared to calcium chloride alone
  KC and TNF alpha reduction: small increase

## C[S+]([O-])c1ccc(-c2nc(-c3ccncc3)c(-c3ccc(F)cc3)[nH]2)cc1 (stereo not shown) [p38 MAP kinase inhibitor]
Neutrophils in the BAL
  pulmonary total cell response to ozone exposure: significantly inhibited

## [Ca+2].[Cl-].[Cl-] [calcium chloride]
[2]; 1 ng/ml LPS, 2 hours, 10, 25, 50 mM, compared to untreated (0)
  gene expression of KC, IL-6 and TNFα: significantly reduced
[2]; LPS stimulated
  NRIP1 gene expression: significantly reduced
TLR2/6
  % KC reduction at 10 mM calcium ion: −25 ± 11%
  % KC reduction at 25 mM calcium ion: −51 ± 27%
TLR3
  % KC reduction at 10 mM calcium ion: 81 ± 7%
  % KC reduction at 25 mM calcium ion: 76 ± 16%
TLR9
  % KC reduction at 10 mM calcium ion: −55 ± 51%
  % KC reduction at 25 mM calcium ion: −144%
TLR2
  % KC reduction at 10 mM calcium ion: 46 ± 10%
  % KC reduction at 25 mM calcium ion: 85 ± 9%
TLR1/2
  % KC reduction at 10 mM calcium ion: −1 ± 9%
  % KC reduction at 25 mM calcium ion: −27 ± 58%
TLR4
  % KC reduction at 10 mM calcium ion: 68 ± 15%
  % KC reduction at 25 mM calcium ion: 75 ± 13%
TLR 5
  % KC reduction at 10 mM calcium ion: 54 ± 6%
  % KC reduction at 25 mM calcium ion: 50 ± 2%
TLR7
  % KC reduction at 10 mM calcium ion: −10 ± 41%
  % KC reduction at 25 mM calcium ion: −20 ± 49%
[3]
  inflammatory mediator secretion (KC, TNF alpha): little effect
[4]; 1 ng/ml LPS, 2 hours, 10, 25, 50 mM, compared to untreated (0) cells
  protein secretion of KC, IL-6 and TNF alpha: significantly reduced
[4]; Presto blue or trypan blue assays
  cell viability: generally did not affect cell viability
[4]
  LPS induced inflammatory mediator secretion (KC, IL-6): decreased
[4]; no LPS, increasing calcium chloride content
  inflammatory mediator release of unstimulated cells: mild increase
[5]
  inflammatory mediator secretion (KC, TNF alpha): dose-dependent decrease
Human macrophages; 25 mM, to near that of non-LPS challenged cells
  inflammatory cytokine secretion (IL-8, IL-6, TNF alpha, MIP-1 alpha; IL-8 only for COPD): significant decline
Human macrophages
  LPS induced cytokine production (IL-8, IL-6): of lesser magnitude than calcium lactate but more potent than sodium chloride

## [Cl-].[Na+] [sodium chloride, reference compound]
[4]
  LPS induced inflammatory mediator secretion (KC, IL-6): little influence
Human macrophages
  LPS induced cytokine production (IL-8, IL-6): little influence

## [Cl-].[Cl-].[Mg+2] [magnesium chloride]
[4]
  LPS induced inflammatory mediator secretion (KC, IL-6): some activity
Human macrophages
  LPS induced cytokine production (IL-8, IL-6): of lesser magnitude than calcium lactate but more potent than sodium chloride

## CC(O)C(=O)[O-].CC(O)C(=O)[O-].[Ca+2] (stereo not shown) [calcium lactate]
[4]
  LPS induced inflammatory mediator secretion (KC, IL-6): more profound effect
Human macrophages
  LPS induced cytokine production (IL-8, IL-6): most profound effect

## N.N.N.N.N.N.N.N.N.N.N.N.N.N.[Cl-].[Cl-].[Cl-].[Cl-].[Cl-].[Cl-].[O-2].[O-2].[Ru+3].[Ru+3].[Ru+4] [ruthenium red]
[1]; in the presence of 10 mM calcium chloride, 1 ng/ml LPS
  decrease in KC concentration: further enhanced
[1]; ruthenium red alone (1, 5, 10, 20 micromolar), 1 ng/ml LPS, 2 hours
  decrease in KC concentration: more than 50%

## CC(=O)N[C@H]1[C@H]([C@H](O)[C@H](O)CO)OC(C(=O)O)=C[C@@H]1N=C(N)N [Zanamivir, zanamivir]
Influenza A/WSN/33/1
  viral infection / Influenza titer versus untreated (Air) control: reduced viral infection in a dose responsive manner
